# Legend:
# [1] = Tolerability: mouse weight and organ histology; assay type: in vivo; details: 30 mg/kg/day for 2 weeks
# Method: Z36-MP5 was chosen for further validation and experimental therapeutics in vivo. […] To investigate its cellular inhibitory activity, B16F10 cells were treated with Z36-MP5 at concentrations ranging from 5 to 100 µM, and the activation of Mi-2β target genes measured by RT-qPCR. […] In addition, the pharmacokinetic properties of Z36-MP5 in Sprague-Dawley rats with administration of intraperitoneal injection dose of 1.0 mg/kg. […] To exclude any effects on the host cells, we implanted Mi-2β-null melanoma cells into C57BL6 mice and then treated the mice with Z36-MP5 accompanied by anti-PD-1 therapy.
# (§1) Supplementary Figure 8. In vitro assay for Mi-2β inhibitors. a The body weight changes of C57BL/6J mice treated with Z36-MP5 (30 mg/kg/day) for 2 weeks. Data are mean ± SEM (n=5). b H&E staining of tissues in C57BL/6J mice treated with or without Z36 -MP5 (30 mg/kg/day) for 2 weeks. […]
# (§2) The growth of tumor grafts was measured. n = 5. g Mice bearing B16F10 cell s were treated with MS177 (100 mg/kg, 5 days) and then Z36 -MP5 (30 mg/kg/day) or vehicles, accompanied with anti -PD-1 antibody […]
# B16F10 cells = test: CCK-8 cell proliferation; assay type: cell-based, mouse; details: CCK-8, B16F10 cells
# Method: To test whether Z36-MP5 affects cell proliferation, cells were seeded into 96-well plates at a density of 1 × 10^3 cells/100 μl per well. CCK-8 was used to detect changes in proliferation ability after 3 days of treatment with Z36-MP5 (25 μM). To test whether Mi-2β expression in T cells or treatment of T cells with Z36-MP5 affects the ability of T cells to kill tumor cells, Mi-2β in Pmel-1 T cells was manipulated or Pmel-1 cells were exposed to Z36-MP5 (25 μM) for 24 hrs. The number of cells was quantified. One thousand Pmel-1 T cells were then co cultured with 1000 tumor cells for 24 hrs, and the number of tumor cells was counted.
# as §1, §2
# [2] = test system: secreted Cxcl9 and Cxcl10, B16F10 cells; test: ELISA of secreted Cxcl9 and Cxcl10 in stimulated cells; assay type: cell-based, mouse; details: MS177 (10 μM), GSK126 (2μM) or Z36-MP5 (10 μM)
# Method: B16F10 cells (1 × 10^6) with or without Mi-2β knockdown were seeded in 6-well plates in complete growth medium. Cell medium was changed to serum-free medium, before treatment with IFN-γ at indicated concentration for 24 h. The secreted chemokines were measured by mouse Cxcl9 ELISA kit (ab203364) and mouse Cxcl10 ELISA Kit (ab214563), according to the manufacturer’s protocols. Isolated graft tumors were prepared and minced with blades, then tumor tissues were cultured in PBS (250 mg/500 µl) for 4 h at 37 °C. The secreted amount of the chemokines in the culture were measured by mouse Cxcl9 ELISA kit (ab203364) and mouse Cxcl10 ELISA Kit (ab214563), according to the manufacturer’s protocols.
# Supplementary Figure 10. Comparison of tumor growth inhibition effects between Z36-MP5 and EZH2 inhibitors. a Mice (n=8) bearing B16F10 cells were treated with control IgG or anti-PD-1 antibody in combination with Z36-MP5 or GSK126, as indicated. A mouse survival curve is shown, with log-rank test for mouse survival P value. b,c The epigenetic modifications of H3 (H3K27ac, H3K27me1 and H3K27me3) were measured in B16F10 cells stimulated with GSK126 or Z36-MP5 as indicated (n = 3, independent experiments). d The amount of secreted Cxcl9 and Cxcl10 was measured by ELISA in […]
# represent mean ± SD. The unpaired, two tailed t-test. Source data are provided as a Source Data file. […]
# Pharmacokinetics in rats = assay type: in vivo; details: Sprague-Dawley, rat, serum, ip, intraperitoneal 1.0 mg/kg, male SD rats
# Method: Compound Z36-MP5 was evaluated in a pharmacokinetic study in male Sprague-Dawley (SD) rats following intraperitoneal injection of Z36-MP5 at 1.0 mg/kg as a solution in 5% DMSO, 30% PEG400, and 65% corn oil. Blood was collected at 0.25, 0.5, 1, 2, 4, 8, and 24 h following intraperitoneal injection. The blood samples were placed in wet ice, and serum was collected after centrifugation. Serum samples were frozen and stored at −80 °C. The serum samples were analyzed utilizing HPLC-coupled tandem mass spectrometry. Values are calculated from arithmetic mean plasma concentrations (n = 3 rats per condition). Rats experiments were done according to protocols approved by the ethics committee review board of University of Arkansas for Medical Science and in accordance with the guidelines set forth by the US National Institutes of Health.
compound,measurement,setting,value
Cn1c(=O)[nH]c2ccc(-c3cccc(C(=O)NC4CCn5ccnc5C4)c3)cc21 (centres unmarked) [Z36-MP5],"tolerability (mouse weight, organ tissue histological staining)",[1],tolerated without significant toxicity
same,proliferation of tumor cells,B16F10 cells,not significantly inhibited
same,induction of ISGs compared with GSK126 or MS177,[2],more efficiently induced
same,Cmax,Pharmacokinetics in rats,3960 ng/mL
same,half-life,Pharmacokinetics in rats; read-out: half-life T1/2 (converted),27 min
